From patent US20240245693A1, “COMPOSITIONS AND METHODS OF TISSUE REGENERATION THERAPY” (The Regents of the University of California, priority 2021, published 2024)
Entries after “also recorded” stand apart in the source; their conditions may differ.

Tests used:
[1] = tested on: mouse splinted skin wound; assay: mouse excisional splinted skin wound healing model, topical application; format: in vivo; conditions: daily topical application at 5 micromolar in 10% DMSO vehicle; FIG. 5
Excerpt: FIGS. 1A-1B show wound healing in mouse excisional skin wound splinting model, wherein a splinting ring is tightly adhered to the skin around the wound, thereby preventing local skin contraction. The wound is thus healed through a process of granulation and re-epithelialization similar to that occurring in human. The figures present a time course healing of skin splinted wound in wild type (WT) (FIG. 1A) and Npas2 KO mice (FIG. 1B).
Skin of experimental animals such as mice are similarly composed of multiple tissues; however excisional wound heals faster in part due to active wound contraction. Therefore, mouse wound healing model employs a silicone stent around the excisional skin, which prevents contraction allowing the healing through re-epithelialization and granulation tissue formation. The mouse splinted skin wound model has provided a common experimental platform, which allows investigation of critical molecules for skin wound healing using genetically manipulated mice. Knockout mutation of wound inflammation related molecules such as Sphingosine kinase-1 or mast cell proteases was reported to delay the wound closure and the proliferative phase of healing, respectively.
High throughput screening (HTS) of well-defined chemical compounds was performed using Npas2-LacZ reporter mouse skin fibroblasts. […]

[2] = tested on: human periodontal ligament MSC (PDLSC); assay: in vitro osteogenic differentiation assay using human periodontal ligament stem cells (PDLSC); format: cell-based; conditions: supplementation of compound; FIG. 8
human dermal fibroblasts = assay: in vitro collagen synthesis assay using human dermal fibroblasts; format: cell-based
Protocol: Without serotonin (5-HT) supplementation, the majority of selected compounds maintained fibroblastic collagen synthesis.
(§1) High throughput screening (HTS) of well-defined chemical compounds was performed using Npas2-LacZ reporter mouse skin fibroblasts. Chemical genomics analysis of hit compounds indicated the involvement of monoamine-related pathways for regulating Npas2 expression. To identify the regulatory mechanism of Npas2 in human dermal fibroblasts, a library of lentivirus expression vectors containing human monoamine-related genes was selected for over-expression study.

Npas2 = Npas2 expression in human dermal fibroblasts; format: cell-based; conditions: serotonin supplementation; FIG. 9F
Protocol: FIGS. 9A-9G show the effect of HTR1B and HTR2B on human dermal fibroblasts.
as §1

SMILES	wound closure and skin tissue regeneration [1]	osteogenic differentiation of PDLSC [2]	fibroblastic collagen synthesis (human dermal fibroblasts; in the presence of 10 μM 5-HT supplementation, FIG. 4)	Npas2 expression of human dermal fibroblasts (Npas2)	in vitro collagen synthesis of human dermal fibroblasts (human dermal fibroblasts; serotonin supplementation, FIG. 9E)
CN1CCC(=C2c3ccccc3C=Cc3ccccc32)CC1 [Cyproheptadine, 1-methyl-4-(2-tricyclo[9.4.0.03,8]pentadeca-1(15),3,5,7,9,11,13-heptaenylidene)piperidine]	significant wound closure and skin tissue regeneration				
N#Cc1cc(CN2CCC(Nc3ncnc4sc(Cl)cc34)CC2)ccc1F [PRX-08066, 5-[[4-[(6-chlorothieno[2,3-d]pyrimidin-4-yl)amino]piperidin-1-yl]methyl]-2-fluorobenzonitrile]	significant wound closure and skin tissue regeneration	effective compound; also recorded: enhanced the differentiation of PDLSC	high level of collagen synthesis		
NCCc1c[nH]c2ccc(O)cc12 [serotonin]				increased	decreased
